Source: patent US20250326769A1, “HETEROAROMATIC MACROCYCLIC ETHER CHEMOTHERAPEUTIC AGENTS” (Nuvalent, Inc., priority 2022, published 2025)

Experiments:
[1] = target: Ba/F3 EML4-ALK v1 I1171N/D1203N (Homo sapiens (Human), UniProt Q9HC35+Q9UM73, D1203N/I1171N); assay: Ba/F3 cell proliferation assay, EML4-ALK v1 I1171N/D1203N; format: cell-based; conditions: for IC50: Ba/F3 stable cells, 72 hours, CellTiter-Glo; for ETV6-TRKB / EML4-ALK v1 I1171N/D1203N / Selectivity for Ba/F3 EML4-ALK v1 I1171N-D1203N IC50 over Ba/F3 ETV6-TRKB IC50: TRKB selectivity, ratio of Ba/F3 IC50 values; for Selectivity for Ba/F3 EML4-ALK v1 I1171N-D1203N IC50 over Ba/F3 ETV6-TRKB IC50: Table 6 bins
Sequence of Ba/F3 EML4-ALK v1 I1171N/D1203N (Q9UM73 other isoform, or with tags, fused parts or gaps I1171N/D1203N): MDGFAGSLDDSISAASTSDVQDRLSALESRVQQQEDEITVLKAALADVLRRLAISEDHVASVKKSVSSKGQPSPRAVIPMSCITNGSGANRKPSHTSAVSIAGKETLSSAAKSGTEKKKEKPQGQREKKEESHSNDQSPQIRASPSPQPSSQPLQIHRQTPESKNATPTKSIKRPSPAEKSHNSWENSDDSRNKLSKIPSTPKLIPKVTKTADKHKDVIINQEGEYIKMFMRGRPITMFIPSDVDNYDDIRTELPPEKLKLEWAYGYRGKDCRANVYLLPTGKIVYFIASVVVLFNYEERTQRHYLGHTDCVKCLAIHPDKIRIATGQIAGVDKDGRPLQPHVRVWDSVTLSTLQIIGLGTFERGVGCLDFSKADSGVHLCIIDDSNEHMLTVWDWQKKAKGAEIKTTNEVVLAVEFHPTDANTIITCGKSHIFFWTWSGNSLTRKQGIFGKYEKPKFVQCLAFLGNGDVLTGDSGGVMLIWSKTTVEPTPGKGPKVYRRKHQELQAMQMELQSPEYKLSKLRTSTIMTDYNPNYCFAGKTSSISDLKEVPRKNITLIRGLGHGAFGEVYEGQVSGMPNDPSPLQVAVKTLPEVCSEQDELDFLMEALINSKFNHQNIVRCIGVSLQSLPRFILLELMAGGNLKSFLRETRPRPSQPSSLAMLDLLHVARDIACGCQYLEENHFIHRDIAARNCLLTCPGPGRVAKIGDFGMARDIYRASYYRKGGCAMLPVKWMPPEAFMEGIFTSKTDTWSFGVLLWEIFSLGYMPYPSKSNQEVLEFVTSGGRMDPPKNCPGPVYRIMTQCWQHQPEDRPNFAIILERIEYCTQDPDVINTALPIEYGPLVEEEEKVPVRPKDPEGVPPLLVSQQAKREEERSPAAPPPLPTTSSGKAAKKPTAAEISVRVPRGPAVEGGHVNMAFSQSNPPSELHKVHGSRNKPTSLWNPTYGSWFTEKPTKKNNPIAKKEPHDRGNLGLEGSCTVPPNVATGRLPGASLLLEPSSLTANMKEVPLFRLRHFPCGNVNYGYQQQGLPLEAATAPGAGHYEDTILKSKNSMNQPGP
Text: (§1) Genes encoding EML4-ALK v1 (variant 1), EML4-ALK v1 G1202R, EML4-ALK v1 I1171IN, EML4-ALK v1 D1203N, EML4-ALK v1 I1171N/D1203N, and ETV6-TRKB were synthesized at GeneRay, cloned into the retroviral construct pMSCV-puro (Biovector), and packaged into retroviral particles. The virus was used to infect Ba/F3 cells (RIKEN) at multiplicity of infection=1 for 1 day. Infected cells were rescued in media (RPMI-1640 with 10% fetal bovine serum and 1% streptomycin and penicillin) supplemented with mouse IL-3 (10 ng/mL) for 2 days, and stable cell lines were selected by IL-3 withdrawal and puromycin (0.8 μg/mL) for 7 days. Monoclones were selected by single-cell dilution in IL-3-free medium containing puromycin (0.8 μg/mL). Transformation of desired genes was confirmed by Sanger sequencing and western blot using the following antibodies: ALK (CST #3633) and pan-TRK (Abcam #76291).
(§2) Stable cells were plated in a 384-well plate. Test compounds were then added in a 3-fold dilution series and incubated for 72 hours. CellTiter-Glo reagent (Promega) was added. Luminescence was measured on a plate reader. Half-maximal inhibitory concentration (ICso) was calculated from percent inhibition and inhibitor concentration using four-parameter logistic regression. Compound potency can be interpreted by binning IC50 values: bin A for high potency, 0.1 nM IC50<50 nM; bin B for medium potency, 50 nM<IC50<500 nM; and bin C for low potency, IC50>500 nM. […] Exemplary data is given in Table 4 (nd is not determined).
(§3) Ba/F3 proliferation is driven by the transduced oncogenes in the same way that cancer cell proliferation in humans is driven by the expression of equivalent oncogenes.
TRKB selectivity was calculated by dividing a compound's TRKB potency by its primary target potency (e.g., ETV6-TRKB IC50/EML4-ALK v1 IC50). Compound selectivity can be interpreted by binning ratio values: bin A for very high selectivity, ratio≥30-fold; bin B for high selectivity, ratio≥10-fold but<30; bin C for moderate selectivity, ratio≥1 but<10; and bin D for low selectivity, ratio<1. […] (nd=not determined).
Additional exemplified compounds were also tested against ALK-INDN and TRKB. The TRKB selectivity was calculated by dividing a compound's TRKB potency by its primary target potency (e.g., ETV6-TRKB IC50/EMIL4-ALK I1171N-D1203N v1 IC50). Compound selectivity can be interpreted by binning ratio values: bin AA for the selectivity with the ratio≥30-fold; bin BB for the selectivity with the ratio≥10-fold but<30; bin CC for the selectivity with the ratio≥5 but<10; bin DD for the selectivity with the ratio≥1 but<5; and bin EE for the selectivity with the ratio<1.

[2] = target: Ba/F3 ETV6-TRKB (Homo sapiens, UniProt Q16620); assay: Ba/F3 cell proliferation assay, ETV6-TRKB; format: cell-based; conditions: Ba/F3 stable cells, 72 hours, CellTiter-Glo; read-out: ETV6-TRKB IC50
Sequence of Ba/F3 ETV6-TRKB (Q16620 32-822 limits assumed, change not shown): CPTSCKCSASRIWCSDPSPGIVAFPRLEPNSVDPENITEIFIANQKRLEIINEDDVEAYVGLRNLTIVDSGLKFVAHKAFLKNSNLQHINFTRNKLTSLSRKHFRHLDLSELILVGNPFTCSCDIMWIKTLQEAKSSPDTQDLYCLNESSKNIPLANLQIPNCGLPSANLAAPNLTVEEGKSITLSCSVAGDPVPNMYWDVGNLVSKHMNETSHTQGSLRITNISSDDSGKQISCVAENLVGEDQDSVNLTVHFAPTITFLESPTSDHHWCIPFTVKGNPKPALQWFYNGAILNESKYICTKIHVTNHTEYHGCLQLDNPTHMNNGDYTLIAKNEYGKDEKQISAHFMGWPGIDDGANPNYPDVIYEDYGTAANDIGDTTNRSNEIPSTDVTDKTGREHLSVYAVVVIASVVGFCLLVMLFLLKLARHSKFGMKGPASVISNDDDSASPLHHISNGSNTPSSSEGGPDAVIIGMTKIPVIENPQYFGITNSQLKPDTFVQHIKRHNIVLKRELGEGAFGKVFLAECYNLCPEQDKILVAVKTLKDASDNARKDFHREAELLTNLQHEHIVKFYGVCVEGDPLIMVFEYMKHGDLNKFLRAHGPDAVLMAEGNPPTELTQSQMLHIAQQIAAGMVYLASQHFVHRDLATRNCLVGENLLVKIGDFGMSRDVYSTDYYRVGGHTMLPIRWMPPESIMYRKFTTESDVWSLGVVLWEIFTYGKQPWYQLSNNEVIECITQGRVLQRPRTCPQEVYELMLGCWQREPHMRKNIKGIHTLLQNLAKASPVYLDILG
Text: as §1, §2, §3

SMILES | IC50 [1] | ETV6-TRKB / EML4-ALK v1 I1171N/D1203N [1] | Selectivity for Ba/F3 EML4-ALK v1 I1171N-D1203N IC50 over Ba/F3 ETV6-TRKB IC50 [1] | IC50 [2]
C[C@H]1Oc2cc(cnc2N)-c2c(C#N)nn(C)c2C(=O)c2cccnc2-c2c(F)cc(F)cc21 [Example 22, (R)-23-amino-15,17-difluoro-5-methyl-20-methyl-7-oxo-21-oxa-4,5,12,24-tetraazapentacyclo[20.3.1.0^2,^6.0^8,^13.0^14,^19]hexacosa-1(25),2(6),3,8,10,12,14,16,18,22(26),23-undecaene-3-carbonitrile] | 0.1 to 50 nM | A (bin A for very high selectivity, ratio≥30-fold) | AA (bin AA for the selectivity with the ratio≥30-fold) | > 500 nM
C[C@H]1Oc2cc(cnc2N)-c2c(CC3CC3)nn(C(=O)N(C)C)c2Cc2cn(C)nc2-c2c(F)cc(F)cc21 [Example 23, (19R)-22-amino-3-(cyclopropylmethyl)-14,16-difluoro-N,N,10,19-tetramethyl-20-oxa-4,5,10,11,23-pentaazapentacyclo[19.3.1.0^2,6.0^8,12.0^13,18]pentacosa-1(24),2(6),3,8,11,13,15,17,21(25),22-decaene-5-carboxamide] | 50 to 500 nM | A (bin A for very high selectivity, ratio≥30-fold) |  | > 500 nM
CCc1nn(C(=O)N(C)C)c2c1-c1cnc(N)c(c1)O[C@H](C)c1cc(F)ccc1-c1ncccc1C2 [Example 24, (R)-5-(N,N-dimethylcarbamoyl)-3-ethyl-17-fluoro-20-methyl-21-oxa-4,5,12,24-tetraazapentacyclo[20.3.1.0^2,^6.0^8,^13.0^14,^19]hexacosa-1(25),2(6),3,8(13),9,11,14,16,18,22(26),23-undecaen-23-ylamine] | 0.1 to 50 nM | C (bin C for moderate selectivity, ratio≥1 but<10) |  | 0.1 to 50 nM
C[C@H]1Oc2cc(cnc2N)-c2c(C#N)nn(C)c2C(=O)c2cccnc2-c2ccc(F)cc21 [Example 25, (R)-23-amino-17-fluoro-5-methyl-20-methyl-7-oxo-21-oxa-4,5,12,24-tetraazapentacyclo[20.3.1.0^2,^6.0^8,^13.0^14,^19]hexacosa-1(25),2(6),3,8(13),9,11,14,16,18,22(26),23-undecaene-3-carbonitrile] | 0.1 to 50 nM | A (bin A for very high selectivity, ratio≥30-fold) | AA (bin AA for the selectivity with the ratio≥30-fold) | > 500 nM
C[C@H]1Oc2cc(cnc2N)-c2c(C#N)nn(C)c2C(=O)c2cn(C)nc2-c2c(F)cc(F)cc21 [Example 28, (R)-22-amino-14,16-difluoro-5,10-dimethyl-19-methyl-7-oxo-20-oxa-4,5,10,11,23-pentaazapentacyclo[19.3.1.0^2,^6.0^8,^12.0^13,^18]pentacosa-1(24),2(6),3,8,11,13,15,17,21(25),22-decaene-3-carbonitrile] | 50 to 500 nM | A (bin A for very high selectivity, ratio≥30-fold) |  | > 500 nM
CC(C)N(C)C(=O)c1nn(CC2CC2)c2c1Cc1cn(C)nc1-c1ccc(F)cc1[C@@H](C)Oc1cc-2cnc1N [Example 37, N-isopropyl-N-methyl-(R)-22-amino-3-(cyclopropylmethyl)-16-fluoro-10-methyl-19-methyl-20-oxa-3,4,10,11,23-pentaazapentacyclo[19.3.1.0^2,^6.0^8,^12.0^13,^18]pentacosa-1(24),2(6),4,8,11,13,15,17,21(25),22-decaene-5-carboxamide] | 50 to 500 nM |  |  | > 500 nM
C[C@H]1Oc2cc(cnc2N)-c2c(nn(C)c2C#N)Oc2cccnc2-c2ccc(F)cc21 [Example 59, (R)-23-amino-17-fluoro-4-methyl-20-methyl-7,21-dioxa-4,5,12,24-tetraazapentacyclo[20.3.1.0^2,^6.0^8,^13.0^14,^19]hexacosa-1(25),2,5,8(13),9,11,14,16,18,22(26),23-undecaene-3-carbonitrile] | 0.1 to 50 nM | B (bin B for high selectivity, ratio≥10-fold but<30) |  | 50 to 500 nM
C[C@H]1Oc2cc(cnc2N)-c2c(nn(C)c2C#N)Oc2cccnc2-c2c(F)cc(F)cc21 [Example 61, (R)-23-amino-15,17-difluoro-4-methyl-20-methyl-7,21-dioxa-4,5,12,24-tetraazapentacyclo[20.3.1.0^2,^6.0^8,^13.0^14,^19]hexacosa-1(25),2,5,8(13),9,11,14,16,18,22(26),23-undecaene-3-carbonitrile] | 0.1 to 50 nM |  |  | 50 to 500 nM
C[C@H]1Oc2cc(cnc2N)-c2c(nn(C)c2C#N)Cc2cccnc2-c2c(F)cc(F)cc21 [Example E1, reference compound] |  |  | BB (bin BB for the selectivity with the ratio≥10-fold but<30) | 
C[C@H]1Oc2cc(cnc2N)-c2c(C#N)nn(C)c2Cc2cccnc2-c2c(F)cc(F)cc21 [Example E2, reference compound] |  |  | DD (bin DD for the selectivity with the ratio≥1 but<5) | 
Cc1cc2n(n1)-c1ccc(F)cc1[C@@H](C)Oc1cc(cnc1N)-c1c(C#N)nn(C)c1C2 [Example E3, reference compound] |  |  | EE (bin EE for the selectivity with the ratio<1) | 
CCn1ncc2c1-c1cnc(N)c(c1)O[C@H](C)c1cc(F)ccc1-c1nn(C)cc1C2 [Example E4, reference compound] |  |  | EE (bin EE for the selectivity with the ratio<1) | 
CC(C)n1nc2c(c1C#N)-c1cnc(N)c(c1)O[C@H](C)c1cc(F)ccc1-c1ncccc1C2 [Example E5, reference compound] |  |  | CC (bin CC for the selectivity with the ratio≥5 but<10) | 
Cc1nc2c(s1)Cc1c(c(C#N)nn1C)-c1cnc(N)c(c1)O[C@H](C)c1cc(F)ccc1-2 [Example E6, reference compound] |  |  | EE (bin EE for the selectivity with the ratio<1) | 
C[C@H]1Oc2cc(cnc2N)-c2c(nn(C)c2C#N)Cc2cccnc2-c2ccc(F)cc21 [Example E7, reference compound] |  |  | CC (bin CC for the selectivity with the ratio≥5 but<10) | 
C[C@H]1Oc2cc(cnc2N)-c2c(C#N)nn(C)c2Cc2cccnc2-c2ccc(F)cc21 [Example E8, reference compound] |  |  | DD (bin DD for the selectivity with the ratio≥1 but<5) | 
CCn1ncc2c1-c1cnc(N)c(c1)O[C@H](C)c1cc(F)ccc1-c1ncccc1C2 [Example E10, reference compound] |  |  | EE (bin EE for the selectivity with the ratio<1) | 
C[C@H]1Oc2cc(cnc2N)-c2c(cnn2CC2CC2)Cc2cccnc2-c2ccc(F)cc21 [Example E11, reference compound] |  |  | DD (bin DD for the selectivity with the ratio≥1 but<5) | 
CCn1nc2c(c1C#N)-c1cnc(N)c(c1)O[C@H](C)c1cc(F)ccc1-c1ncccc1C2 [Example E12, reference compound] |  |  | CC (bin CC for the selectivity with the ratio≥5 but<10) | 
C[C@H]1Oc2cc(cnc2N)-c2c(nn(C)c2C#N)Cc2cn(C)nc2-c2c(F)cc(F)cc21 [Example E13, reference compound] |  |  | BB (bin BB for the selectivity with the ratio≥10-fold but<30) | 
